This experiment addresses T1, lipase CAL-B (Moesziomyces antarcticus, UniProt P41365).
T1 sequence (P41365 26-342): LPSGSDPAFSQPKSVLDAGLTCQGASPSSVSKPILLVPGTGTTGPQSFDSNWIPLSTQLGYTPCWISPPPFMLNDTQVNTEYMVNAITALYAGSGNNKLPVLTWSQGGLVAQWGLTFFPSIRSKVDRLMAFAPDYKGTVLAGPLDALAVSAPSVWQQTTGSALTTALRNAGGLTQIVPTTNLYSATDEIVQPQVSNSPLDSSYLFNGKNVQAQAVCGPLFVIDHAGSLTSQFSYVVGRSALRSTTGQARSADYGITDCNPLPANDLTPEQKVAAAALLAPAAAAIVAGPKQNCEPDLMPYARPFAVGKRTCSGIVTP
Kind of experiment: kinetic resolution, yield. The experiment is classed as biochemical. The conditions noted are these: free CAL-B; substrate not given.

The structures appear in SMILES notation.

On to `CC(=O)O[C@H](C)c1cccc2ccccc12` [compound 8, product 8], for which the “kinetic resolution, yield” value was “it resulted in a notably lower yield in comparison to free CAL-B”.

The values are drawn from publication PMC10906037, “Highly Enantioselective Catalysis by Enzyme Encapsulated in Metal Azolate Frameworks with Micelle-Controlled Pore Sizes” (ACS Central Science, 2024).
